Laboratory results from US20160263087A1, “NOVEL 4-(INDOL-3-YL)-PYRAZOLE DERIVATIVES, PHARMACEUTICAL COMPOSITIONS AND METHODS FOR USE” (ITEOS THERAPEUTICS, priority 2013, published 2016).
pIC50: −log10 of the molar value.

Assays:
human TDO2 [1] = molecular target: T1, human TDO2 (Homo sapiens, UniProt P48775); assay: Cellular assay for TDO2 activity, A172 cells naturally expressing hTDO2; type: cell-based; design: expressed in transfected cells; host or cells: murine mastocytoma P815 cells; details: A172 cells naturally expressing hTDO2, overnight incubation, kynurenine absorbance at 480 nm
T1 sequence (P48775 whole entry): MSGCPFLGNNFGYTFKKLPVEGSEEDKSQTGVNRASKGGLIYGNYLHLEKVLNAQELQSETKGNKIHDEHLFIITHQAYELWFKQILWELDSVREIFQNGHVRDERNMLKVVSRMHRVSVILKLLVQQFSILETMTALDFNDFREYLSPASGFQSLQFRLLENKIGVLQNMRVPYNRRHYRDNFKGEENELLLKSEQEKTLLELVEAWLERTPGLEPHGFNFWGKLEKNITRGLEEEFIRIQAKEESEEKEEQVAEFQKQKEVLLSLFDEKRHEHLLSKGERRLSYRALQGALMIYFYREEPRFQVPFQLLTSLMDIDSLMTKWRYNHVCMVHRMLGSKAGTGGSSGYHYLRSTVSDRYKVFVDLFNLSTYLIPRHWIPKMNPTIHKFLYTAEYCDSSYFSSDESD
Procedure: (§1) The assay was performed in 96-well flat bottom plates seeded with […] A172 cells, naturally expressing hTDO2 (prepared as described in Tilman et al., Mol Cancer, 2007, 17(6), 80), at a concentration of 1.25×10^4 cells/well in a final volume of 200 μL. To determine TDO, the cells were incubated overnight at 37° C. at 5% CO2 in IMDM (Invitrogen) supplemented with 2% FBS and 2% penicillin/streptomycin in the presence of the compounds of the present invention, at different concentrations.
(§2) The plates were then centrifuged 5 min at 1000 rpm, and 100 μL of the supernatant were collected in a conical plate, 30 uL of TCA 30% were added and a further centrifugated at 3000×g for 10 minutes. 100 μL of the supernatant were collected in a flat bottomed plate and 100 μL of 2% (w/v) 4-(dimethylamino)-benzaldehyde in acetic acid and incubated for 5 min at room temperature. Kynurenine concentrations were determined by measuring the absorbance at 480 nm. A standard curve was made with pure kynurenine. The TDO activity was measured as described above using ten serial concentrations of the compounds of the present invention. Data were fitted using the Prism software (GraphPad Software, Inc.).

human TDO2 [2] = molecular target: T1, human TDO2; assay: Cellular assay for TDO2 activity, hTDO2-overexpressing P815 cells; type: cell-based; design: expressed in transfected cells; host or cells: murine mastocytoma P815 cells; details: murine mastocytoma P815 cells overexpressing hTDO2, overnight incubation, kynurenine absorbance at 480 nm
Procedure: as §1, with “P815 cells overexpressing” for “A172 cells, naturally expressing”, “Pilotte” for “Tilman”, “PNAS, 2012, 109(7), 2497-2502),” for “Mol Cancer, 2007, 17(6), 80),”, “5×10^4” for “1.25×10^4”, “TDO or IDO activity,” for “TDO,”
as §2

human TDO2 [3] = molecular target: T1, human TDO2; assay: Assay for TDO2 enzymatic activity determination; type: biochemical; design: made in house; details: human recombinant TDO2, L-Trp 1 mM, room temperature, one hour, kynurenine absorbance at 480 nm
Procedure: To measure the TDO2 activity, the reaction mixture contained (final concentrations) potassium phosphate buffer (50 mM, pH 7.5), ascorbic acid (0.25 M), methylene blue (0.125 μM), catalase (40 units/mL, from bovine liver, Sigma), and human recombinant TDO2 enzyme (prepared as described in Dolusic et al. J. Med. Chem.; 2011, 54, 5320-5334; 0.9 μg) without or with the compounds of the present invention at the indicated concentrations (total volume 112.5 μL). The reaction was initiated by the addition of 37.5 μL of L-Trp (final concentration 1 mM) at room temperature. The reaction was conducted at room temperature during one hour and stopped by the addition of 30 μL of 30% (w/v) trichloroacetic acid.
To convert N-formylkynurenine into kynurenine, the reaction mixture was incubated at 65° C. for 30 min. Then 150 μL of the reaction mixture was mixed with 120 μL of 2.5% (w/v) 4-(dimethylamino)-benzaldehyde in acetic acid and incubated for 5 min at room temperature. Kynurenine concentrations were determined by measuring the absorbance at 480 nm. A standard curve was made with pure kynurenine. The TDO activity was measured as described above using ten serial concentrations of the compounds of the present invention. Data were fitted using the Prism software (GraphPad Software, Inc.).

TDO2 = molecular target: T2, TDO2 (Mus musculus, UniProt P48776); assay: Pharmacodynamic assay for TDO2 in vivo activity: increase of blood tryptophan levels in mice; details: for increase of circulating Tryptophan: plasma after two hours, vs vehicle; for Tryptophan concentration in plasma (average ± standard error of the mean): two hours, LC-MS-MS
T2 construct: from tissue; host or cells: live mice (whole animal; plasma tryptophan read-out)
T2 sequence (P48776 whole entry): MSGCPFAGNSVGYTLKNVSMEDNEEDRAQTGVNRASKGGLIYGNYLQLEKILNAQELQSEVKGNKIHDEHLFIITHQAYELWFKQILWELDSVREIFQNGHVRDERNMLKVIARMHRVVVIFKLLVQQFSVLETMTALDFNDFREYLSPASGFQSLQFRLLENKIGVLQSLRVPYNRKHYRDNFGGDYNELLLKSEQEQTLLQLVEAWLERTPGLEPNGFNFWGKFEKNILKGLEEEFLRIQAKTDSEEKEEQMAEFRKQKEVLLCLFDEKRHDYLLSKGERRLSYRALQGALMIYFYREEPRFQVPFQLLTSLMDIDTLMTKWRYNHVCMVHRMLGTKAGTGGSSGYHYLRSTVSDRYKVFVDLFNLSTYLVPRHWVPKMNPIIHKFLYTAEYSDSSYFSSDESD
Procedure: The compounds of the present invention increase the amount of Tryptophan in mouse blood.
Briefly, mice were treated with either a suspension of one of the compounds of the present invention in 0.5% HPMC K4M/0.25% Tween 20 at different doses (30, 60 and 100 mg/kg), or with a vehicle control (0.5% HPMC K4M/0.25% Tween 20), by the oral route by gavage (dosing volume 5 mL/kg, 10 mice per group). After two hours, blood was harvested, plasma was prepared and the amount of Tryptophan present was determined by LC-MS-MS (HPLC column Unison UK-Phenyl, 75×4.6, 3 μm, flow rate 0.8 mL/min, 8 minutes gradient from 95% water+0.1% formic acid/5% Acetonitrile+0.1% formic acid to 5% water+0.1% formic acid/95% Acetonitrile+0.1% formic acid, retention time 2.4 min; API4000 MS-MS system from AB Sciex, ESI+ mode, parent ion 205.1, daughter ion 146.1).

| SMILES | pIC50 (human TDO2 [2]) | pIC50 (human TDO2 [3]) | also measured |
| --- | --- | --- | --- |
| Fc1ccc2c(-c3cnn(CC4CCNCC4)c3)c[nH]c2c1 [Compound 43, 6-fluoro-3-(1-(piperidin-4-ylmethyl)-1H-pyrazol-4-yl)-1H-indole] |  |  | pIC50 (human TDO2 [1]): > 6.00 |
| COCC(=O)N1CCC(n2cc(-c3c[nH]c4cc(F)ccc34)cn2)CC1 [Compound 85, 1-(4-(4-(6-fluoro-1H-indol-3-yl)-1H-pyrazol-1-yl)piperidin-1-yl)-2-methoxyethanone] |  |  | pIC50 (human TDO2 [1]): > 6.00 |
| CC(=O)N1CCC(n2cc(-c3c[nH]c4cc(F)ccc34)cn2)CC1 [Compound 89, 1-(4-(4-(6-fluoro-1H-indol-3-yl)-1H-pyrazol-1-yl)piperidin-1-yl)ethanone] |  |  | melting point: 183.2 to 184.5 °C; increase of circulating Tryptophan (TDO2; 30 mg/kg oral gavage, p<0.05): 26%; Tryptophan concentration in plasma (average ± standard error of the mean) (TDO2; 30 mg/kg oral gavage): 25126 ng/mL; Tryptophan concentration in plasma (average ± standard error of the mean) (TDO2; 60 mg/kg oral gavage): 28452 ng/mL; increase of circulating Tryptophan (TDO2; 100 mg/kg oral gavage, p<0.001): 43%; Tryptophan concentration in plasma (average ± standard error of the mean) (TDO2; 100 mg/kg oral gavage): 28374 ng/mL; increase of circulating Tryptophan (TDO2; printed 30 mg/kg (second mention, p<0.001), oral gavage): 43% |
| CS(=O)(=O)CCCC(=O)N1CCC(n2cc(-c3c[nH]c4cc(F)ccc34)cn2)CC1 [Compound 103, 1-(4-(4-(6-fluoro-1H-indol-3-yl)-1H-pyrazol-1-yl)piperidin-1-yl)-4-(methylsulfonyl)butan-1-one] | 5.00 to 6.00 | 4.00 to 5.00 |  |
| O=C(CCO)N1CCC(n2cc(-c3c[nH]c4cc(F)ccc34)cn2)CC1 [Compound 104, 1-(4-(4-(6-fluoro-1H-indol-3-yl)-1H-pyrazol-1-yl)piperidin-1-yl)-3-hydroxypropan-1-one] | > 6.00 | 5.00 to 6.00 |  |
| CS(=O)(=O)CCC(=O)N1CCC(n2cc(-c3c[nH]c4cc(F)ccc34)cn2)CC1 [Compound 105, 1-(4-(4-(6-fluoro-1H-indol-3-yl)-1H-pyrazol-1-yl)piperidin-1-yl)-3-(methylsulfonyl)propan-1-one] | > 6.00 | 5.00 to 6.00 |  |
| CS(=O)(=O)N1CCC(n2cc(-c3c[nH]c4cc(F)ccc34)cn2)CC1 [Compound 106, 6-fluoro-3-(1-(1-(methylsulfonyl)piperidin-4-yl)-1H-pyrazol-4-yl)-1H-indole] | > 6.00 | 5.00 to 6.00 | pIC50 (human TDO2 [1]): > 6.00 |

Now from value to compound, other results behind:

| pIC50 (human TDO2 [2]) | pIC50 (human TDO2 [3]) | SMILES | also measured |
| --- | --- | --- | --- |
| 5.00 to 6.00 | 5.00 to 6.00 | OC1(Cn2cc(-c3c[nH]c4cc(F)ccc34)cn2)CCOCC1 [Compound 59, 4-((4-(6-fluoro-1H-indol-3-yl)-1H-pyrazol-1-yl)methyl)tetrahydro-2H-pyran-4-ol] |  |
| > 6.00 | 5.00 to 6.00 | OC1CCC(n2cc(-c3c[nH]c4cc(F)ccc34)cn2)CC1 [Compound 68, (1R,4R)-4-(4-(6-fluoro-1H-indol-3-yl)-1H-pyrazol-1-yl)cyclohexanol] |  |
| > 6.00 | 5.00 to 6.00 | Cc1nn(C)cc1-c1c[nH]c2cc(F)ccc12 [Compound 75, 3-(1,3-dimethyl-1H-pyrazol-4-yl)-6-fluoro-1H-indole] |  |
| 5.00 to 6.00 | 4.00 to 5.00 | Cn1ncc(-c2c[nH]c3ccccc23)c1C(F)(F)F [Compound 77, 3-(1-methyl-5-(trifluoromethyl)-1H-pyrazol-4-yl)-1H-indole] |  |
